Results on four molecules are retold here after patent US9085632B2, “Biological materials and uses thereof” (PEPTINNOVATE LIMITED, priority 2008, dated 2015).

Entries after “also recorded” stand apart in the source; their conditions may differ. Like-named read-outs stand apart in the source and are kept apart here.

Assay [1] deals with ovalbumin challenged mice. Type of assay: in vivo. The conditions noted are these: 24 h after repeated ovalbumin challenge; for levels of total IgE circulating in serum: 0.005 μg/mouse, FIG. 13; for levels of IL-5 in BAL fluid: FIG. 12; for recruitment of eosinophils to the airways: Cpn60.1 0.1 and 1 μg, peptide 4 0.005 μg, FIG. 11.
The subject of assay [2] is spleen cells of C57Bl/6 mice. Type of assay: cell-based, C57BI/6 mice. The conditions noted are these: polymixin B, FIG. 8; for IL-12 release compared with Cpn60.1 at lower concentrations: lower concentrations (0.001-0.1 μg/ml).
The test system of assay [3] is ovalbumin challenged mice. Particulars: previously demonstrated, Riffo-Vasquez et al. 2004; cited from earlier work.
The test system of assay [4] is ovalbumin challenged mice. Type of assay: in vivo. Particulars: 24 h after repeated ovalbumin challenge, 10 μg intra-tracheal; for bronchial hyper-responsiveness to methacholine: FIG. 2; for recruitment of eosinophils to the airways (airways inflammation): percentage of eosinophils vs ovalbumin alone, FIG. 1. The method, then:
Allergic inflammation in the lung is induced by 2 intraperitoneal injections of 10 μg of ovalbumin (OVA) in 1 mg of alum with 7 days interval between them. Control animals receive alum only. On day 14, all animals are exposed to an aerosol of OVA for 25 minutes, once a day for 3 consecutive days. All measurements are performed 24 h after the last antigen challenge. […]

Assay [5] deals with human peripheral blood monocytes. The assay can be described thus: Human monocyte assay, TNF-alpha secretion (ELISA). Particulars: pre-treatment 1 hour, then LPS (1 ng/ml) 24 hours; FIGS. 18, 20. It counts as cell-based. The protocol:
We have established a human monocyte assay to compare the efficacy of Cpn60.1 and various peptide sequences of this protein. Human monocytes were obtained by density-dependent centrifugation from peripheral venus blood from healthy volunteers. Monocytes were then isolated and purified with cells adjusted to a density of 2×10^6 cells/ml which were incubated for 1 hour 30 minutes. The plates were then washed twice with Hanks solution. 0.9 ml of RPMI medium was then added to each well followed by polymyxin-B (5 μg/ml). 30 minutes later, 0.1 ml of Cpn at 0.0001-1000 ng/ml or peptides were added to the wells. Cells were then incubated at 37° C., 5% CO2 for 1 hour. The medium was removed and cells washed. 0.9 ml of medium was added to each well followed by 0.1 ml of LPS (1 ng/ml) and left to incubate for 24 hours. Supernatant was taken from each well and frozen for Enzyme Linked Immunosorbent Assay (ELISA).
In general terms: An ELISA detects its analyte on a solid surface through an enzyme-linked reagent.

Assay [6] relates to bone marrow dendritic cells. Briefly: IL-12 production by bone marrow dendritic cells pulsed with chaperonins. It counts as cell-based, Balb/c mice. Particulars: 48 h; Cpn60.1 0.1-30 μg/ml, Cpn10 10 μg/ml; FIG. 5. The protocol: (§1) Bone marrow cells from Balb/c mice were collected and cultured for 6 days in complete Dulbecco's Modified Eagle Medium containing 8 ng/ml of mouse GM-CSF. On day 6 of culture, the cells were collected, re-plated for 1 hour for removal of adherent cells, washed and plated at […] in 6-wells plates for analysis of surface markers expression and transference experiments and at 10^5 cells/well in 96-wells plate for cytokine measurements. In other experiments, cells were incubated at 10^6 cells/well for 24 h with the chaperonins and then another further 24 h with LPS (10 ng/ml).

Assay [7] has as its system co-culture of dendritic cells and RD11.10 T cells. The assay can be described thus: IL4 release in dendritic cell / T cell co-culture. Type of assay: cell-based, mice. Particulars: DC pre-treated 10 μg/ml 24 h; 6 days co-culture, anti-CD3 and anti-CD28 24 hours; FIG. 7. The protocol: as §1
DC pre-treated with Cpn60.1 (10 μg/ml) or Cpn10 (10 μg/ml) for 24 h suppressed the release of IL4 from RD11.10 T cells in a DC/T cell co-culture. After 6 days of culture, cells were stimulated with anti-CD3 and anti-CD28 for further 24 hours and supernatants collected. IL5 and IL10 were not detected in this culture (FIG. 7).

The test system of assay [8] is bone marrow dendritic cells. Briefly: LPS-induced IL12 production by dendritic cells after chaperonin pre-incubation. Type of assay: cell-based, Balb/c mice. Particulars: pre-incubation 24 hours, then LPS (10 ng/ml) further 24 h; FIG. 6. The protocol: as §1
Pre-incubation of DC's with Cpn60.1 but not Cpn10 for 24 hours inhibited IL12 production induced by LPS (FIG. 6).

Assay [9] concerns OVA-sensitized recipient mice. Briefly: Transfer of chaperonin pre-treated dendritic cells to OVA-sensitized recipient mice. Type of assay: in vivo. The conditions noted are these: dendritic cells pre-treated in vitro 24 h with 10 μg/ml, given topically to lungs; FIG. 4. The protocol: as §1
The DC's were pre-treated in vitro for 24 h with Cpn10 (10 μg/ml) and then administrated topically to the lungs of OVA-sensitized recipient mice.

Take “DGSVVVNKVSELPAGHGLNVNTLSYGDLAAD (listed as Mycobacterium tuberculosis) [Peptide 4]”: the figures for the “levels of total IgE circulating in serum” value in assay [1] and in [1] (listed as Cpn60.1-peptide 4) were “affected total IgE production” and “significantly inhibited”, respectively. The “levels of IL-5 in BAL fluid” value is listed as “not caused by an interference with the production of IL-5” in [1] and “not significantly inhibited” in assay [1] (listed as Cpn60.1-peptide 4). Also, the “recruitment of total cells to the airways” value in assay [1] (intra-nasal, Cpn60.1 1 μg, FIG. 10) was “inhibited”. In addition, the “recruitment of eosinophils to the airways” value is listed as “significant reduction” in assay [1] (intra-nasal) and “inhibited” in [1] (intra-nasal, listed as Cpn60.1-peptide 4). In addition, the “IL-12 release compared with Cpn60.1 at higher concentration” value in assay [2] (higher concentration (0.1-30 μg/ml)) is reported as “reduced effect in comparison to Cpn60.1”. Further, the “IL-12 release compared with Cpn60.1 at lower concentrations” value in assay [2] is “more effective than Cpn60.1”.

For “LTTETVVVDKPAKAEDHDHHHGHAH (listed as Mycobacterium tuberculosis) [Peptide 6]”, the “IL-12 release compared with Cpn60.1 at lower concentrations” value in [2] was “less potent effect”.

With “Cpn60.2: M. tuberculosis chaperonin polypeptide chaperonin 60.2”, in assay [3], the “lung inflammation in a murine model of asthma” value is given as “not”. In addition, in [4], the “bronchial hyper-responsiveness to methacholine” value is recorded as “not” and the “recruitment of eosinophils to the airways (airways inflammation)” value was “not”.

B1: Cpn10: M. tuberculosis chaperonin polypeptide chaperonin 10 (protein, UniProt P9WPE5 2-100, looked up)
Co-chaperonin GroES: AKVNIKPLEDKILVQANEAETTTASGLVIPDTAKEKPQEGTVVAVGPGRWDEDGEKRIPLDVAEGDTVIYSKYGGTEIKYNGEEYLILSARDVLAVVSK
Take B1: the “LPS-induced TNF-alpha secretion” value in assay [5] was “does not suppress; also recorded: failed to inhibit”. Further, the “IL12 production by dendritic cells” value in assay [6] was “induced low levels; also recorded: induced lower levels of IL-12 release in comparison to LPS and Cpn60.1”. The “lung inflammation in a murine model of asthma” value in assay [3] is recorded as “suppressed”. In [4], the “bronchial hyper-responsiveness to methacholine” value is on record as “reduced; also recorded: significantly inhibit” and the “recruitment of eosinophils to the airways (airways inflammation)” value is recorded as “inhibited; also recorded: significantly inhibit”. The “levels of cytokines in BAL fluid (cytokine release in the lung)” value in assay [4] (FIG. 3) is “significantly inhibit”. Also, in assay [7], the “levels of IL4 in DC/T cell co-culture” value is given as “suppressed”. For the same molecule, the “IL12 production induced by LPS” value in assay [8] is “not”. In addition, in assay [9], the “eosinophils migration to the lung” value is recorded as “significantly inhibited”.
